Laboratory results as given in the OPERA property sets (Mansouri et al. 2018).

Conditions: for log10 BCF / log10 biotransformation half-life (days): fish

| SMILES | melting point [°C] | boiling point [°C] | further results |
| --- | --- | --- | --- |
| Cc1cc(O)c([N+](=O)[O-])cc1Cl | 133 | – | log10 vapour pressure (mmHg): -3.07 |
| OCC1CCCCC1 | -43 | 183 | – |
| OCC(F)F | -28.2 | 95.5 | – |
| CC(C)CCOC(=O)C(=O)OCCC(C)C | -9 | 268 | – |
| CCOC(=O)C(CC)C(C)=O (stereo not given) | – | 198 | – |
| CC1(C)COC1 | – | 80.6 | – |
| N#Cc1ccccc1 | -12.7 | 191 | log10 Koa: 4.46; log10 vapour pressure (mmHg): -0.115; ready biodegradability: readily biodegradable |
| c1ccc(-c2nc3ccccc3o2)cc1 | 103 | – | – |
| O=C1CN(/N=C/c2ccc([N+](=O)[O-])o2)C(=O)N1CN1CCOCC1 | 206 | – | – |
| COc1cc(C=CC(=O)O)cc(OC)c1OC | 127 | – | – |
| C=C(C)C(C)CCC (stereo not given) | – | 110 | – |
| N#CCCC(Br)(C#N)CBr (stereo not given) | 52 | – | – |
| Cc1cccc(C)c1 | -47.8 | 139 | log10 Henry constant (atm·m³/mol): -2.14; log10 Koa: 3.78; log10 Koc (L/kg): 2.25; log10 biodegradation half-life (days): 1; log10 vapour pressure (mmHg): 0.919; ready biodegradability: readily biodegradable; log10 BCF: 1.17 |
| CC(C)c1cccc(O)c1O | 47 | – | – |
| CC(=O)Oc1ccc(Cl)cc1Cl | – | 244 | – |
| COc1c(Cl)ccc(Cl)c1C(=O)O | 115 | – | log10 Koc (L/kg): 1.5; log10 vapour pressure (mmHg): -4.47 |
| CC(C)Nc1ccc(Nc2ccccc2)cc1 | 74 | – | ready biodegradability: not readily biodegradable |
| CC(C)c1ccc(O)cc1 | 62.3 | 230 | log10 vapour pressure (mmHg): -1.34 |
| CCCOc1ccc2[nH]c(NC(=O)OC)nc2c1 | 230 | – | – |
| Nc1cccc(I)c1 | 33 | – | – |

| SMILES | melting point [°C] | boiling point [°C] | further results |
| --- | --- | --- | --- |
| O=C(NNc1ccccc1)NNc1ccccc1 | 170 | – | – |
| c1ccc(-c2cccc(-c3ccccc3)c2)cc1 | 87 | 363 | log10 vapour pressure (mmHg): -4.76 |
| O=C(O)c1ccccc1 | 122 | 249 | log10 Koc (L/kg): 1.5; log10 vapour pressure (mmHg): -3.15; ready biodegradability: readily biodegradable |
| C=CCc1ccccc1 | -40 | 156 | – |
| CCCCCCCCCOCCCCCCCCC | – | – | log10 vapour pressure (mmHg): -4.28 |
| CC(C)Oc1cc(-n2nc(C(C)(C)C)oc2=O)c(Cl)cc1Cl | 90 | – | log10 Koc (L/kg): 3.51; log10 vapour pressure (mmHg): -6.95; ready biodegradability: not readily biodegradable; log10 BCF: 3.08; log10 biotransformation half-life (days): 0.77 |
| N#CCN(CC#N)CCN(CC#N)CC#N | 128 | – | – |
| CNCCOC(=O)/C=C1/CC[C@H]2[C@@H]([C@@H](O)C[C@@H]3[C@]2(C)CCC[C@]3(C)C(=O)OC)[C@H]1C | 115 | – | – |
| CCCCN1CCCCC1 | – | 176 | – |
| O=C1C(Cl)=C(Cl)C(=O)C(Cl)=C1Cl | 290 | – | log10 Koc (L/kg): 2.32 |
| C=CC(OC)OC | – | 88 | – |
| CC(Cl)CO (stereo not given) | – | 134 | log10 vapour pressure (mmHg): 0.72 |
| COc1cccc2c1C(=O)c1c(O)c3c(c(O)c1C2=O)C[C@@](O)(C(=O)CO)C[C@@H]3O[C@H]1C[C@H](N)[C@H](O)[C@H](C)O1 | 230 | – | – |
| CC(=O)[C@@]1(O)[C@H](O)C[C@H]2[C@@H]3CCC4=CC(=O)CC[C@]4(C)[C@H]3CC[C@@]21C | 225 | – | – |
| CC(=O)O[C@@H](C(=O)O)c1ccccc1 | 97 | – | – |
| CCCCC1CCC(OC(=O)C2CCC(CCCC)CC2)CC1 (stereo not given) | – | – | ready biodegradability: readily biodegradable |
| C=CCCCC(C)C | – | 113 | log10 vapour pressure (mmHg): 1.4 |
| O=C(O)c1ccccc1I | 163 | – | ready biodegradability: not readily biodegradable |
| O=S(=O)(Oc1ccc(Cl)cc1)c1ccc(Cl)cc1 | 86.5 | – | ready biodegradability: not readily biodegradable |
| COc1ccccn1 | – | 142 | – |

| SMILES | melting point [°C] | boiling point [°C] | further results |
| --- | --- | --- | --- |
| CC#CC#CC | 67.8 | 130 | – |
| CCCC#CCCCCCC | -74.7 | 198 | – |
| Clc1ccc(OCOCC#CI)cc1 | – | – | ready biodegradability: not readily biodegradable |
| O=C(CCl)c1ccc(Cl)cc1 | 102 | 270 | – |
| O=S(O)c1ccccc1 | 84 | – | ready biodegradability: not readily biodegradable |
| CC(C)OC(=O)C(Cl)(Cl)Cl | – | 175 | – |
| CCCCC(CC)COC(=O)CC(C(=O)OCC(CC)CCCC)S(=O)(=O)[O-].[Na+] (stereo not given) | 176 | – | – |
| c1ccc2nc3ccccc3cc2c1 | 108 | 346 | log10 Koc (L/kg): 4.18; log10 vapour pressure (mmHg): -3.87; log10 BCF: 2.1 |
| O=C1c2c(Br)c(Br)c(Br)c(Br)c2C(=O)N1CCN1C(=O)c2c(Br)c(Br)c(Br)c(Br)c2C1=O | 445 | – | – |
| Cl[C@H]1[C@H](Cl)[C@@H](Cl)[C@H](Cl)[C@@H](Cl)[C@H]1Cl (racemic) | – | – | ready biodegradability: not readily biodegradable |
| COc1cc(O)c2c(=O)c3cc(O)ccc3oc2c1 | 266 | – | – |
| O=C1C=CC(=O)C1 | 37 | – | – |
| CCCCCCCCCCCC(=O)Oc1ccccc1 | 24.5 | – | – |
| CCOc1ccc(O)cc1 | 66.5 | 246 | – |
| C=C1CCC1 | -135 | 42.2 | – |
| CCOC(=O)CCC=O | – | 162 | – |
| CCOC(=O)c1cccc(OC)c1 | – | 260 | – |
| Cc1ccccc1S(N)(=O)=O | – | – | ready biodegradability: not readily biodegradable; log10 BCF: 0.41; log10 biotransformation half-life (days): -0.89 |
| CCCCCCCCCCCCCCC1CCCCC1 | 24 | 360 | – |
| Cc1cc(Cl)ccc1OCC(=O)O | 120 | 287 | log10 Koc (L/kg): 1.73; log10 vapour pressure (mmHg): -5.23; ready biodegradability: not readily biodegradable |
